# Experimental data reported in paper PMC7937321 (Genes and Environment, 2021).
# Entries after “also recorded” stand apart in the source; their conditions may differ. Read-outs that look alike come from different tables or passages of the source.
# Columns and labels:
# [1] = system: rodent; conditions: cited from earlier work; for Carcinogenicity Studies: rodent, ref [20]-[41], Table 2; for carcinogenicity: report of the National Toxicology Program, ref [24]
# [2] = system: TA1538, TA100, TA98, TA97, TA1535; conditions: cited from earlier work; for Bacterial reverse mutation assay, With S9 / Bacterial reverse mutation assay, Without S9: ref [18]-[40], Table 2
# [3] = system: rodent; conditions: cited from earlier work
# [4] = system: human lymphoblastoid TK6 cells, thymidine kinase gene; assay: TK gene mutation assay (TK6 assay, OECD TG490); conditions: for TK6 assay overall judgment: all treatments; for TK mutation assay, With S9 / TK mutation assay, Without S9: short-term 4 h; for TK mutation assay, With S9: with rat liver S9
# Description: (§1) In principle, this collaborative study conducted the treatment of test substances, the dose finding, and the main test of TK6 assays, according to the OECD Guideline TG490 [17]. […] Briefly, test substances were dissolved in an appropriate solvent (DMSO or ethanol) and then serially diluted to prepare final concentrations. […] The 4 h and 24 h treatments were conducted by shaking and static exposures, respectively. After treatment with test substances, cells were centrifuged (1000 rpm, 5 min), supernatants were removed, and cells were washed with a serum-free medium or Hank’s Balanced Salt Solution. After centrifugation (1000 rpm, 5 min) to remove the supernatant, cells (2 × 10^7 cells) were dispersed in an RPMI medium containing 10% serum, and cell concentration was measured. Treated cells were cultured at 37 °C with 5% CO2 condition and used for TK6 assays. At that time, to calculate the cloning efficiency (CE) (Eq. 1), the cells were cultured in a 96-well microplate at a concentration of about 1.6 cells/well for 2 weeks.
# (§2) The TK6 assay is conducted between 20 and 10% RS0 as a maximum dose if cytotoxicity is observed. If no precipitate or limiting cytotoxicity was observed, the maximum dose was the lowest concentration among 10 mM, 2 mg/mL, or 2 μL/mL of the test substance. When the main TK6 assay was difficult to conduct under the condition of RS0 values from 20 to 10%, the test was conducted between 20 and 10% relative total growth (RTG), described later, as a maximum dose.
# (§3) On the third day of culture, CE3 plates for determining plating efficiency and mutant frequency (MF) plates for mutation detection were prepared. CE3 plates were seeded in 96-well microplates at a concentration of about 1.6 cells/well. The MF plates were seeded in 96-well microplates at 40,000 cells/well in the presence of 3 μg/mL of trifluorothymidine (Sigma Aldrich).
# (§4) Mutant colonies in MF plates were calculated using Eq. 7 using the Poisson distribution. EW was the number of wells without colonies, and TW was the total number of wells. N was the average number of cells per well (N = 40,000 in this study). The data were statistically analyzed by Omori’s method, a modified Dunnett’s procedure for identifying clear negatives, a Simpson–Margolin procedure for detecting downturn data, and a trend test to evaluate the dose dependency [42, 43]. The acceptability criterion for the test was that the MF value of the positive control group of each laboratory was increased with statistical significance compared with that of the concurrent negative control group.
# [5] = system: livers of rats; conditions: ref [74]; cited from earlier work
# [6] = system: TK6 cells; conditions: human
# [7] = system: L5178Y mouse lymphoma cells; design: key to MLA (TK gene locus), Without S9 / MLA (TK gene locus), With S9: Positive; Negative; conditions: cited from earlier work
# [8] = system: rats; conditions: cited from earlier work
# [9] = system: rats; conditions: ref [75]; cited from earlier work
# [10] = system: LacI transgenic mice; conditions: ref [77]; cited from earlier work
# [11] = system: gpt transgenic rats; design: method as in PMID 20026473, doi:10.3123/jemsge.34.25; conditions: ref [23], [78]; cited from earlier work
# [12] = system: mouse organs; conditions: ref [80]; cited from earlier work
# [13] = system: TK6 cells; assay: Cytotoxicity in the TK6 assay (CE, RS, RSG, RTG)
# [14] = system: human lymphoblastoid TK6 cells, thymidine kinase gene
# Description: as §1, §2, §3, §4
# [15] = system: mammalian cells; design: method as in PMID 32152633; conditions: ref [10], [11]; cited from earlier work
# [16] = system: 3-D reconstituted human skin cells; design: method as in PMID 32152633; conditions: ref [10], [11]; cited from earlier work
# [17] = in vitro; conditions: human
# [18] = system: human lymphoblastoid TK6 cells, thymidine kinase gene; design: method as in PMID 2184322; conditions: 96 h of exposure, absence of S9; ref [67]; cited from earlier work
# [19] = system: human lymphocytes; design: method as in PMID 22539226; conditions: in vitro; ref [6]; cited from earlier work
# [20] = system: mice; design: method as in PMID 22539226; conditions: ref [6]; cited from earlier work
# [21] = chromosomal Aberration test, micronucleus test, transgenic rodent gene mutation assay, ref [48], [58]–[63]
# [22] = Short-term treatment with metabolic activation
# [23] = Short-term treatment without metabolic activation
structure (smiles),measurement,setting,value
O=[N+]([O-])c1cccc2ccccc12 [1-Nitronaphthalene],Carcinogenicity Studies,[1],Neg
same,The Highest Specific Activity and the Strain,"[2]; TA100 with S9, ref Table 2","12,500 revertants/mg"
same,The Highest Specific Activity and the Strain,"[2]; TA100 without S9, ref Table 2","14,700 revertants/mg"
same,specific activity values obtained from Ames test,[2]; ref Table 2,"exceeding 10,000 revertants per milligram"
same,"Bacterial reverse mutation assay, With S9",[2],Pos
same,"Bacterial reverse mutation assay, Without S9",[2],Pos
same,in vivo genotoxicity tests,[3]; [21],negative
same,"TK6 assay result (mutant frequency increase, judgment)",[4]; 4h treatment (+S9),significant increase in MF
same,"TK6 assay result (mutant frequency increase, judgment)",[4]; 4h treatment (-S9),significant increase in MF
same,TK6 assay overall judgment,[4],positive
same,"TK mutation assay, With S9",[4],Pos
same,"TK mutation assay, Without S9",[4]; without S9,Pos
"Cc1ccc(N)cc1N [2,4-Diaminotoluene, reference compound]",carcinogenicity,[1],carcinogenic
same,DNA adducts in the livers of rats,[5],Significant DNA adducts were detected
"Cc1c(N)cccc1N [2,6-Diaminotoluene]",cytotoxicity,[6],More than 80%
same,carcinogenicity,[1],non-carcinogenic
same,Carcinogenicity Studies,[1],Neg
same,mutagenicity in MLA using L5178Y mouse lymphoma cells,"[7]; 4 h, −S9, ref [68]",occurs
same,"MLA (TK gene locus), Without S9","[7]; ref [27], [46]-[53], Table 3",Pos
same,UDS assay,"[8]; high dose, ref [79]",positive
same,unscheduled DNA synthesis (UDS) assay in rats,[8]; ref [76],negative
same,DNA adducts in the livers of rats,[5],marginal amount of adducts
same,hepatocellular proliferation in rats,[9],negative
same,mutagenic assay with LacI transgenic mice,[10],negative
same,gpt mutagenic assay with transgenic rats,[11],negative
same,comet assay of various mouse organs,[12],negative
same,The Highest Specific Activity and the Strain,"[2]; TA100 with S9, ref Table 2",1703 revertants/mg in TA100 with S9
same,"Bacterial reverse mutation assay, With S9",[2],Pos
same,"Bacterial reverse mutation assay, Without S9",[2],Neg
same,in vivo genotoxicity tests,[3]; [21],negative
same,"TK6 assay result (mutant frequency increase, judgment)",[4]; 4h treatment (+S9),Statistically significant increases of MF; also recorded: mutagenic
same,"TK6 assay result (mutant frequency increase, judgment)",[4]; 4h treatment (-S9),negative
same,"TK mutation assay, Long term","[4]; 24 h, without S9",Pos
same,"TK6 assay result (mutant frequency increase, judgment)",[4]; 24h treatment (-S9),Statistically significant increases of MF; also recorded: positive; also recorded: mutagenic
same,TK6 assay overall judgment,[4],positive
same,"TK mutation assay, With S9",[4],Pos
same,"TK mutation assay, Without S9",[4]; without S9,Neg
Cl.ClCc1ccccn1 [2-(Chloromethyl) pyridine HCl],Carcinogenicity Studies,[1],Neg
same,"MLA (TK gene locus), With S9","[7]; with S9, ref [27], [46]-[53], Table 3",Pos
same,"MLA (TK gene locus), Without S9","[7]; ref [27], [46]-[53], Table 3",Pos
same,The Highest Specific Activity and the Strain,"[2]; TA100 with S9, ref Table 2",98.6 revertants/mg in TA100 with S9
same,"Bacterial reverse mutation assay, With S9",[2],Pos
same,"Bacterial reverse mutation assay, Without S9",[2],Pos
same,in vivo genotoxicity tests,[3]; in vivo,negative
same,"TK6 assay result (mutant frequency increase, judgment)",[4]; 4h treatment (+S9),clear concentration-dependent increase of MF
same,"TK6 assay result (mutant frequency increase, judgment)",[4]; 4h treatment (-S9),clear concentration-dependent increase of MF
same,"Dunnett type test, test statistic",[4]; [22],5.868
same,"Trend test, test statistic",[4]; [22],3.912
same,"Dunnett type test, test statistic",[4]; [23],5.268
same,"Trend test, test statistic",[4]; [23],3.417
same,TK6 assay overall judgment,[4],positive
same,"TK mutation assay, With S9",[4],Pos
same,"TK mutation assay, Without S9",[4]; without S9,Pos
same,cytotoxicity (relative colony efficiency),"[13]; 60 μg/mL, absence of S9, short-term",About 80%
same,cytotoxicity (relative colony efficiency),"[13]; 100 μg/mL, presence of S9, short-term",About 80%
"CC(=O)Nc1ccc(C(=O)CCl)cc1 [4-(Chloroacetyl)-acetanilide, 4-(Chloroacetyl)acetanilide]",TK6 assay overall judgment,[14],positive
same,"TK mutation assay, Long term",[14],Pos
same,"TK mutation assay, With S9",[14],Neg
same,"TK mutation assay, Without S9",[14],Pos
same,linear trend test of MF,[14],no statistically significant linear trends
same,Carcinogenicity Studies,[1],Neg
same,The Highest Specific Activity and the Strain,"[2]; TA1538 with S9, ref [18], [19]",600 revertants/mg in TA1538 with S9
same,"Bacterial reverse mutation assay, With S9",[2],Pos
same,"Bacterial reverse mutation assay, Without S9",[2],Neg
same,in vivo genotoxicity tests,[3]; [21],negative
Oc1cccc2cccnc12 [8-Hydroxyquinoline],"TK mutation assay, With S9",[14],Pos
same,"TK mutation assay, Without S9",[14],Neg
same,"Trend test, test statistic",[14]; human,4.896 / 1.645 / p < 0.05
same,Carcinogenicity Studies,[1],Neg
same,"MLA (TK gene locus), Without S9","[7]; ref [27], [46]-[53], Table 3",Pos
same,The Highest Specific Activity and the Strain,"[2]; TA97 with S9, ref [28]","21,400 revertants/mg"
same,The Highest Specific Activity and the Strain,"[2]; TA100 with S9, ref Table 2","16,000 revertants/mg"
same,specific activity values obtained from Ames test,[2]; ref Table 2,"exceeding 10,000 revertants per milligram"
same,"Bacterial reverse mutation assay, With S9",[2],Pos
same,"Bacterial reverse mutation assay, Without S9",[2],Neg
same,in vivo genotoxicity tests,[3]; [21],negative
C[N+](C)(C)c1ccc2ccc(O)c(N=Nc3ccc(N)c([N+](=O)[O-])c3)c2c1.[Cl-] [Basic Brown 17],mutation assays using mouse lymphoma,"[7]; two loci of TK and HPRT, ref [10], [11]",negative
same,in vitro micronucleus test using mammalian cells,[15],negative
same,comet assay with 3-D reconstituted human skin cells,[16],negative
same,Ames test,"[2]; ref [10], [11]",positive
"COS(C)(=O)=O [MMS, methyl methanesulfonate]",Mut. freq. T-MF (MF),"[14]; human, 4 h, 3 μg/mL",23.9 ×10-6
same,MF,"[14]; human, 4 h, 5 μg/mL",71.7
same,Mut. freq. N-MF,"[14]; human, 4 h, 5 μg/mL",29.3 ×10-6
same,Mut. freq. S-MF,"[14]; human, 4 h, 5 μg/mL",42.3 ×10-6
same,Mut. freq. T-MF,"[14]; human, 4 h, 5 μg/mL",71.7 ×10-6
same,%SG,"[14]; human, 24 h, 1 μg/mL",59.3%
same,Mut. freq. (×10-6) N-MF,"[14]; human, 24 h, 1 μg/mL",14.0 ×10-6
same,Mut. freq. (×10-6) S-MF,"[14]; human, 24 h, 1 μg/mL",20.5 ×10-6
same,Mut. freq. (×10-6) T-MF,"[14]; human, 24 h, 1 μg/mL",34.5 ×10-6
same,MF,"[14]; human, 24 h, 2 μg/mL",86.4
same,Mut. freq. (×10-6) N-MF,"[14]; human, 24 h, 2 μg/mL",25.3 ×10-6
same,Mut. freq. (×10-6) S-MF,"[14]; human, 24 h, 2 μg/mL",39.7 ×10-6
same,Mut. freq. (×10-6) T-MF,"[14]; human, 24 h, 2 μg/mL",65.0 ×10-6
same,Mut. freq. N-MF,"[14]; human, 24 h, 2 μg/mL",51.4 ×10-6
same,Mut. freq. S-MF,"[14]; human, 24 h, 2 μg/mL",34.9 ×10-6
same,Mut. freq. T-MF,"[14]; human, 24 h, 2 μg/mL",86.4 ×10-6
same,CE0 (%),"[6]; 4 h, 3 μg/mL",48.8%
same,"CE0 (%), cell viability on Day 0","[6]; 4 h, 3 μg/mL",38.3%
same,CE3 (%),"[6]; 4 h, 3 μg/mL",56.3%
same,"CE3 (%), cell viability on Day 3","[6]; 4 h, 3 μg/mL",54.7%
same,Daily cell growth Day 1×2×3,"[6]; 4 h, 3 μg/mL",8.36
same,Adjusted CE0,"[6]; 4 h, 5 μg/mL",30.4%
same,CE0,"[6]; 4 h, 5 μg/mL",32.6%
same,Daily cell growth Day 1×2×3,"[6]; 4 h, 5 μg/mL",7.40
same,RS,"[6]; 4 h, 5 μg/mL",35.0
same,RS0,"[6]; 4 h, 5 μg/mL",35.0%
same,RSG,"[6]; 4 h, 5 μg/mL",0.357
same,Adjusted CE0(%),"[6]; 24 h, 1 μg/mL",133.2%
same,CE0 (%),"[6]; 24 h, 1 μg/mL",63.1%
same,CE3,"[6]; 24 h, 1 μg/mL",0.866
same,CE3 (%),"[6]; 24 h, 1 μg/mL",86.6%
same,Daily cell growth Day 1×2×3,"[6]; 24 h, 1 μg/mL",15.58
same,RS0 (%),"[6]; 24 h, 1 μg/mL",59.4%
same,RSG,"[6]; 24 h, 1 μg/mL",0.886
same,Adjusted CE0,"[6]; 24 h, 2 μg/mL",8.3%
same,Adjusted CE0(%),"[6]; 24 h, 2 μg/mL",42.0%
same,CE0,"[6]; 24 h, 2 μg/mL",14.6%
same,CE0 (%),"[6]; 24 h, 2 μg/mL",21.6%
same,CE3 (%),"[6]; 24 h, 2 μg/mL",81.6%
same,RS,"[6]; 24 h, 2 μg/mL",12.2
same,RS0,"[6]; 24 h, 2 μg/mL",12.2%
same,RS0 (%),"[6]; 24 h, 2 μg/mL",18.7%
same,"viability at 4 h, 3 μg/mL","[17]; CE0 (%), cell viability on Day 0",27.3%
same,"viability at 4 h, 3 μg/mL","[17]; CE3 (%), cell viability on Day 3",70.6%
Nc1ccc(-c2ccc(N)cc2)cc1 [benzidine],Mutagenicity in human TK6 cells,[18],Mutagenicity was confirmed
"CSc1ccc(OCc2ncc([N+](=O)[O-])n2C)cc1 [fexinidazole, reference compound]",micronucleus test in human lymphocytes,[19],negative
same,ex vivo unscheduled DNA synthesis in rats,[8]; ref [6],negative
same,bone marrow micronucleus test in mice,[20],negative
same,Ames test,[2]; ref [6],positive
